Results: patent US11066414B2, “Cot modulators and methods of use thereof” (Gilead Sciences, Inc., priority 2015, dated 2021)

What follows are molecules tested against Human Cot (Homo sapiens (Human), UniProt P41279) (assay: High Throughput Cot Biochemical Assay). Conditions: IC50 HTRF, Cot HTRF (TR-FRET KinEASE) biochemical assay, 400 μM ATP.
Human Cot, sequence (P41279 30-397): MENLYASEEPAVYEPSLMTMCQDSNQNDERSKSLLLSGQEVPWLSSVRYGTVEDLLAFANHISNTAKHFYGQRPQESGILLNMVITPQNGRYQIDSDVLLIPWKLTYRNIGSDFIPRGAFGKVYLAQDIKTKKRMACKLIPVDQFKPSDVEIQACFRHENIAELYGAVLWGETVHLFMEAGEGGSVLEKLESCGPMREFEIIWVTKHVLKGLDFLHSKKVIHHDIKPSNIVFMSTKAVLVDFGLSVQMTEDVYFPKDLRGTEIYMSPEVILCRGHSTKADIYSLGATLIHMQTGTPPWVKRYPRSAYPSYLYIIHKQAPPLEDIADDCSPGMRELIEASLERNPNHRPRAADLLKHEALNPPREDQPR
Work on `Cc1nc(F)ccc1[C@H](Nc1cc(C#N)c2ncc(C#N)c(NCC(C)(C)C)c2c1)c1cn(C(CF)CF)nn1` [Example 869, (S)-6-(((1-(1,3-difluoropropan-2-yl)-1H-1,2,3-triazol-4-yl)(6-fluoro-2-methylpyridin-3-yl)methyl)amino)-4-(neopentylamino)quinoline-3,8-dicarbonitrile] yielded an IC50 of 2 nM.
Molecule `CC(C)(CNc1c(C#N)cnc2c(C#N)cc(N[C@H](c3cn(C4(C(F)F)CC4)nn3)c3ccc(F)c4ncccc34)cc12)C(F)(F)F` [Example 815, (S)-6-(((1-{1-(difluoromethyl)-cyclopropyl)-1H-1,2,3-triazol-4-yl)(8-fluoroquinolin-5-yl)methyl)amino)-4-((3,3,3-trifluoro-2,2-dimethylpropyl)amino)quinoline-3,8-dicarbonitrile] has an IC50 of 3 nM.

Same assay, conditions: IC50 HTRF, Cot HTRF (TR-FRET) biochemical assay
Molecule `N#Cc1cnc2c(Cl)cc(N[C@H](c3cn(C4CCNCC4)nn3)c3cccs3)cc2c1Nc1ccc(F)c(Cl)c1` [Example 388, (R)-8-chloro-4-((3-chloro-4-fluoro-phenyl)amino)-6-(((1-(piperidin-4-yl)-1H-1,2,3-triazol-4-yl)(thiophen-2-yl)methyl)amino)quinoline-3-carbonitrile] has an IC50 of 10 nM.
Molecule `Cn1cnc2cccc([C@H](Nc3cc(Cl)c4ncc(C#N)c(NCC(C)(C)C)c4c3)c3cn(C4(C(F)F)CC4)nn3)c21` [Example 499, (S)-8-chloro-6-(((1-(1-(difluoromethyl)-cyclopropyl)-1H-1,2,3-triazol-4-yl)(1-methyl-1H-benzo[d]imidazol-7-yl)methyl)amino)-4-(neopentylamino)-quinoline-3-carbonitrile] has an IC50 of 3 nM.
Molecule `Cc1nc(F)ccc1[C@H](Nc1cc(Cl)c2ncc(C#N)c(NCC(C)(C)C)c2c1)c1cn(C2(C#N)CC2)nn1` [Example 476, (S)-8-chloro-6-(((1-(1-cyanocyclopropyl)-1H-1,2,3-triazol-4-yl)(6-fluoro-2-methylpyridin-3-yl)methyl)amino)-4-(neopentylamino)-quinoline-3-carbonitrile] has an IC50 of 3 nM.
`CC(C)(C)CNc1c(C#N)cnc2c(C#N)cc(N[C@H](c3cn(C4(C(F)(F)F)CC4)nn3)c3cccc4ncsc34)cc12` [Example 66, (S)-6-((benzo[d]thiazol-7-yl(1-(1-(trifluoromethyl)cyclopropyl)-1H-1,2,3-triazol-4-yl)methyl)amino)-4-(neopentylamino)quinoline-3,8-dicarbonitrile] was tested, and the IC50 was 3 nM.
Molecule `CC(C)(C)OC(=O)N1CCC(n2cc([C@@H](Nc3cc(Cl)c4ncc(C#N)c(Nc5ccc(F)c(Cl)c5)c4c3)c3cncs3)nn2)CC1` [Example 384, tert-butyl (R)-4-(4-(((8-chloro-4-((3-chloro-4-fluorophenyl)amino)-3-cyanoquinolin-6-yl)amino)(thiazol-5-yl)methyl)-1H-1,2,3-triazol-1-yl)piperidine-1-carboxylate] has an IC50 of 153 nM.
`N#Cc1cnc2c(Cl)cc(N[C@H](c3cn(C4CCNCC4)nn3)c3sccc3Cl)cc2c1Nc1ccc(F)c(Cl)c1` [Example 387, (R)-8-chloro-4-((3-chloro-4-fluoro-phenyl)amino)-6-(((3-chlorothiophen-2-yl)(1-(piperidin-4-yl)-1H-1,2,3-triazol-4-yl)methyl)amino)quinoline-3-carbonitrile] showed an IC50 of 18 nM.
`N#Cc1cnc2c(Cl)cc(NC(c3cccnc3)c3cn(C4CCN(C(=O)OCc5ccccc5)CC4)nn3)cc2c1Nc1ccc(F)c(Cl)c1` (stereo not shown) [Example 404, benzyl 4-(4-(((8-chloro-4-((3-chloro-4-fluorophenyl)amino)-3-cyanoquinolin-6-yl)amino)(pyridin-3-yl)methyl)-1H-1,2,3-triazol-1-yl)piperidine-1-carboxylate] was tested, and the IC50 was 232 nM.
For `Cn1ccc2c([C@H](Nc3cc(Cl)c4ncc(C#N)c(NCC(C)(C)C(F)(F)F)c4c3)c3cn(C4(C5CC5)CC4)nn3)cccc2c1=O` [Example 783, (S)-6-(((1-([1,1′-bi(cyclopropan)]-1-yl)-1H-1,2,3-triazol-4-yl)(2-methyl-1-oxo-1,2-dihydroisoquinolin-5-yl)methyl)amino)-8-chloro-4-((3,3,3-trifluoro-2,2-dimethylpropyl)amino)quinoline-3-carbonitrile], the IC50 was 2 nM.
`Cc1nc(F)ccc1[C@H](Nc1cc(Cl)c2ncc(C#N)c(NCC(C)(C)C)c2c1)c1nnn(C2CC2)c1C#N` [Example 686, (S)-8-chloro-6-(((5-cyano-1-cyclopropyl-1H-1,2,3-triazol-4-yl)(6-fluoro-2-methylpyridin-3-yl)methyl)amino)-4-(neopentylamino)quinoline-3-carbonitrile] gave an IC50 of 4 nM.
`CC1(n2cc([C@@H](Nc3cc(Cl)c4ncc(C#N)c(NCC(C)(C)C(F)(F)F)c4c3)c3cccc4ncccc34)nn2)CC1` [Example 797, (S)-8-chloro-6-(((1-(1-methylcyclopropyl)-1H-1,2,3-triazol-4-yl)(quinolin-5-yl)methyl)amino)-4-((3,3,3-trifluoro-2,2-dimethylpropyl)amino)quinoline-3-carbonitrile] was tested, and the IC50 was 3 nM.
With `[2H]C([2H])(Nc1c(C#N)cnc2c(Cl)cc(N[C@@]([2H])(c3ccc(F)nc3)c3cn(C4CC4)nn3)cc12)C(C)(C)C` [Example 112, (S)-8-chloro-6-(((1-cyclopropyl-1H-1,2,3-triazol-4-yl)(6-fluoropyridin-3-yl)methyl-d)amino)-4-((2,2-dimethylpropyl-1,1-d2)amino)quinoline-3-carbonitrile] the IC50 was 2 nM.
In the case of `CCN1CCC(n2cc([C@@H](Nc3cc(Cl)c4ncc(C#N)c(Nc5ccc(F)c(Cl)c5)c4c3)c3ccsc3)nn2)CC1` [Example 392, (S)-8-chloro-4-((3-chloro-4-fluoro-phenyl)amino)-6-(((1-(1-ethylpiperidin-4-yl)-1H-1,2,3-triazol-4-yl)(thiophen-3-yl)methyl)amino)quinoline-3-carbonitrile], the IC50 is reported as 3 nM.
`N#Cc1cnc2c(Cl)cc(N[C@@H](c3cscn3)c3cn(CCO)nn3)cc2c1Nc1ccc(F)c(Cl)c1` [Example 356, (S)-8-chloro-4-((3-chloro-4-fluorophenyl)amino)-6-(((1-(2-hydroxyethyl)-1H-1,2,3-triazol-4-yl)(thiazol-4-yl)methyl)amino)-quinoline-3-carbonitrile] showed an IC50 of 2 nM.
Molecule `CCN1CCC(n2cc([C@@H](Nc3cc(Cl)c4ncc(C#N)c(Nc5ccc(F)c(Cl)c5)c4c3)c3ccc(C(F)(F)F)s3)nn2)CC1` [Example 365, (R)-8-chloro-4-((3-chloro-4-fluorophenyl)amino)-6-(((1-(1-ethylpiperidin-4-yl)-1H-1,2,3-triazol-4-yl)(5-(trifluoromethyl)thiophen-2-yl)methyl)amino)quinoline-3-carbonitrile] has an IC50 of 38 nM.
Work on `Cn1ncc2c([C@H](Nc3cc(Cl)c4ncc(C#N)c(NCC(C)(C)C)c4c3)c3cn(C4CC4)nn3)cccc21` [Example 423, (S)-8-chloro-6-(((1-cyclopropyl-1H-1,2,3-triazol-4-yl)(1-methyl-1H-indazol-4-yl)methyl)amino)-4-(neopentylamino)-quinoline-3-carbonitrile] yielded an IC50 of 3 nM.
`Cn1cc(C(Nc2cc(Cl)c3ncc(C#N)c(Nc4ccc(F)c(Cl)c4)c3c2)c2cn(C3CCNCC3)nn2)nn1` (stereo not shown) [Example 397, 8-chloro-4-((3-chloro-4-fluoro-phenyl)amino)-6-(((1-methyl-1H-1,2,3-triazol-4-yl)(1-(piperidin-4-yl)-1H-1,2,3-triazol-4-yl)methyl)amino)-quinoline-3-carbonitrile] showed an IC50 of 46 nM.
With `N#Cc1cnc2c(Cl)cc(NC(c3cccnc3)c3cn([C@@H]4CCNC4)nn3)cc2c1Nc1ccc(F)c(Cl)c1` (stereo partly drawn) [Example 401, 8-chloro-4-((3-chloro-4-fluoro-phenyl)amino)-6-((pyridin-3-yl(1-((R)-pyrrolidin-3-yl)-1H-1,2,3-triazol-4-yl)methyl)amino)quinoline-3-carbonitrile] the IC50 was 10 nM.

Same assay, conditions: read-out: IC50 HTRF; Cot HTRF (TR-FRET) biochemical assay
In the case of `N#Cc1cnc2c(Cl)cc(N[C@@H](c3ccsc3)c3cn(C4CCNCC4)nn3)cc2c1Nc1ccc(F)c(Cl)c1` [Example 393, (S)-8-chloro-4-t-((3-chloro-4-fluoro-phenyl)amino)-6-(((1-(piperidin-4-yl)-1H-1,2,3-triazol-4-yl)(thiophen-3-yl)methyl)amino)quinoline-3-carbonitrile], the IC50 is reported as 5 nM.
With `CC(C)n1cc([C@@H](Nc2cc(Cl)c3ncc(C#N)c(Nc4ccc(F)c(Cl)c4)c3c2)c2cc(Br)cnc2Cl)nn1` [Example 293, (S)-6-(((5-brorno-2-chloropyridin-3-yl)(1-isopropyl-1H-1,2,3-triazol-4-yl)methyl)amino)-8-chloro-4-((3-chloro-4-fluorophenyl)-amino)quinoline-3-carbonitrile] the IC50 was 32 nM.
Work on `CC(C)(C)CNc1c(C#N)cnc2c(C#N)cc(N[C@H](c3cn(C4(C5CC5)CC4)nn3)c3cccc4ncccc34)cc12` [Example 696] yielded an IC50 of 2 nM.
`N#Cc1csc([C@H](Nc2cc(Cl)c3ncc(C#N)c(Nc4ccc(F)c(Cl)c4)c3c2)c2cn(CCN3CCOCC3)nn2)c1` [Example 332, (R)-8-chloro-4-((3-chloro-4-fluorophenyl)amino)-6-(((4-cyanothiophen-2-yl)(1-(2-morpho-linoethyl)-1H-1,2,3-triazol-4-yl)methyl)amino)quinoline-3-carbonitrile] was tested, and the IC50 was 65 nM.
Work on `CC(C)(C)N1CCC(n2cc([C@@H](Nc3cc(Cl)c4ncc(C#N)c(NC5CCCCC5)c4c3)c3cccnc3)nn2)CC1` [Example 287, (S)-6-(((1-(1-(tert-butyl)piperidin-4-yl)-1H-1,2,3-triazol-4-yl)(pyridin-3-yl)methyl)amino)-8-chloro-4-(cyclohexylamino)quinoline-3-carbonitrile] yielded an IC50 of 20 nM.
In the case of `Cn1cc(C(Nc2cc(Cl)c3ncc(C#N)c(Nc4ccc(F)c(Cl)c4)c3c2)c2cn(C3CCN(C(C)(C)C)CC3)nn2)nn1` (stereo not shown) [Example 399, 6-(((1-(1-(tert-butyl)piperidin-4-yl)-1H-1,2,3-triazol-4-yl)(1-methyl-1H-l, 2,3-triazol-4-yl)methyl)amino)-8-chloro-4-((3-chloro-4-fluorophenyl)-amino)quinoline-3-carbonitrile], the IC50 is reported as 58 nM.
